In patent US8993586B2, “N1/N2-lactam acetyl-CoA carboxylase inhibitors” (Pfizer Inc., priority 2010, dated 2015):

Columns and labels:
[1] = target: recombinant human ACC1 (rhACC1) (Homo sapiens (Human), UniProt Q13085); assay: recombinant hACC1 Transcreener ADP detection FP assay; format: biochemical; conditions: 50 μM ATP, 120 min at 25° C.
Experimental: (§1) For example direct inhibition of ACC activity, for the compound of Formula (I) was determined using preparations of recombinant human ACC1 (rhACC1) and recombinant human ACC2 (rhACC2).
[1] Preparation of rhACC1. Two liters of SF9 cells, infected with recombinant baculovirus containing full length human ACC1 cDNA, were suspended in ice-cold lysis buffer (25 mM Tris, pH 7.5; 150 mM NaCl; 10% glycerol; 5 mM imidazole (EMD Bioscience; Gibbstown, N.J.); 2 mM TCEP (BioVectra; Charlottetown, Canada); Benzonase nuclease (10000 U/100 g cell paste; Novagen; Madison, Wis.); EDTA-free protease inhibitor cocktail (1 tab/50 mL; Roche Diagnostics; Mannheim, Germany). Cells were lysed by 3 cycles of freeze-thaw and centrifuged at 40,000×g for 40 minutes (4° C.). Supernatant was directly loaded onto a HisTrap FF crude column (GE Healthcare; Piscataway, N.J.) and eluted with an imidazole gradient up to 0.5 M over 20 column volumes (CV). ACC1-containing fractions were pooled and diluted 1:5 with 25 mM Tris, pH 7.5, 2 mM TCEP, 10% glycerol and direct loaded onto a CaptoQ (GE Healthcare) column and eluted with an NaCl gradient up to 1 M over 20 CV's. Phosphate groups were removed from purified ACC1 by incubation with lambda phosphatase (100 U/10 μM target protein; New England Biolabs; Beverly, Mass.) for 14 hours at 4° C.; okadaic acid was added (1 μM final concentration; Roche Diagnostics) to inhibit the phosphatase. Purified ACC1 was exchanged into 25 mM Tris, pH 7.5, 2 mM TCEP, 10% glycerol, 0.5 M NaCl by 6 hour dialysis at 4° C. Aliquots were prepared and frozen at −80° C.
[2] Measurement of rhACC1 inhibition. hACC1 was assayed in a Costar #3676 (Costar, Cambridge, Mass.) 384-well plate using the Transcreener ADP detection FP assay kit (Bellbrook Labs, Madison, Wis.) using the manufacturer's recommended conditions for a 50 μM ATP reaction. The final conditions for the assay were 50 mM HEPES, pH 7.2, 10 mM MgCl2, 7.5 mM tripotassium citrate, 2 mM DTT, 0.1 mg/mL BSA, 30 μM acetyl-CoA, 50 μM ATP, and 10 mM KHCO3 Typically, a 10 μl reaction was run for 120 min at 25° C., and 10 μl of Transcreener stop and detect buffer was added and the combination incubated at room temp for an additional 1 hour. The data was acquired on a Envision Fluorescence reader (PerkinElmer) using a 620 excitation Cy5 FP general dual mirror, 620 excitation Cy5 FP filter, 688 emission (S) and a 688 (P) emission filter.

[2] = target: recombinant human ACC2 (rhACC2) (Homo sapiens (Human), UniProt O00763); assay: recombinant hACC2 Transcreener ADP detection FP assay; format: biochemical; conditions: 50 uM ATP, 50 min at 25° C.
recombinant human ACC2 (rhACC2), sequence (O00763 whole entry V2141I): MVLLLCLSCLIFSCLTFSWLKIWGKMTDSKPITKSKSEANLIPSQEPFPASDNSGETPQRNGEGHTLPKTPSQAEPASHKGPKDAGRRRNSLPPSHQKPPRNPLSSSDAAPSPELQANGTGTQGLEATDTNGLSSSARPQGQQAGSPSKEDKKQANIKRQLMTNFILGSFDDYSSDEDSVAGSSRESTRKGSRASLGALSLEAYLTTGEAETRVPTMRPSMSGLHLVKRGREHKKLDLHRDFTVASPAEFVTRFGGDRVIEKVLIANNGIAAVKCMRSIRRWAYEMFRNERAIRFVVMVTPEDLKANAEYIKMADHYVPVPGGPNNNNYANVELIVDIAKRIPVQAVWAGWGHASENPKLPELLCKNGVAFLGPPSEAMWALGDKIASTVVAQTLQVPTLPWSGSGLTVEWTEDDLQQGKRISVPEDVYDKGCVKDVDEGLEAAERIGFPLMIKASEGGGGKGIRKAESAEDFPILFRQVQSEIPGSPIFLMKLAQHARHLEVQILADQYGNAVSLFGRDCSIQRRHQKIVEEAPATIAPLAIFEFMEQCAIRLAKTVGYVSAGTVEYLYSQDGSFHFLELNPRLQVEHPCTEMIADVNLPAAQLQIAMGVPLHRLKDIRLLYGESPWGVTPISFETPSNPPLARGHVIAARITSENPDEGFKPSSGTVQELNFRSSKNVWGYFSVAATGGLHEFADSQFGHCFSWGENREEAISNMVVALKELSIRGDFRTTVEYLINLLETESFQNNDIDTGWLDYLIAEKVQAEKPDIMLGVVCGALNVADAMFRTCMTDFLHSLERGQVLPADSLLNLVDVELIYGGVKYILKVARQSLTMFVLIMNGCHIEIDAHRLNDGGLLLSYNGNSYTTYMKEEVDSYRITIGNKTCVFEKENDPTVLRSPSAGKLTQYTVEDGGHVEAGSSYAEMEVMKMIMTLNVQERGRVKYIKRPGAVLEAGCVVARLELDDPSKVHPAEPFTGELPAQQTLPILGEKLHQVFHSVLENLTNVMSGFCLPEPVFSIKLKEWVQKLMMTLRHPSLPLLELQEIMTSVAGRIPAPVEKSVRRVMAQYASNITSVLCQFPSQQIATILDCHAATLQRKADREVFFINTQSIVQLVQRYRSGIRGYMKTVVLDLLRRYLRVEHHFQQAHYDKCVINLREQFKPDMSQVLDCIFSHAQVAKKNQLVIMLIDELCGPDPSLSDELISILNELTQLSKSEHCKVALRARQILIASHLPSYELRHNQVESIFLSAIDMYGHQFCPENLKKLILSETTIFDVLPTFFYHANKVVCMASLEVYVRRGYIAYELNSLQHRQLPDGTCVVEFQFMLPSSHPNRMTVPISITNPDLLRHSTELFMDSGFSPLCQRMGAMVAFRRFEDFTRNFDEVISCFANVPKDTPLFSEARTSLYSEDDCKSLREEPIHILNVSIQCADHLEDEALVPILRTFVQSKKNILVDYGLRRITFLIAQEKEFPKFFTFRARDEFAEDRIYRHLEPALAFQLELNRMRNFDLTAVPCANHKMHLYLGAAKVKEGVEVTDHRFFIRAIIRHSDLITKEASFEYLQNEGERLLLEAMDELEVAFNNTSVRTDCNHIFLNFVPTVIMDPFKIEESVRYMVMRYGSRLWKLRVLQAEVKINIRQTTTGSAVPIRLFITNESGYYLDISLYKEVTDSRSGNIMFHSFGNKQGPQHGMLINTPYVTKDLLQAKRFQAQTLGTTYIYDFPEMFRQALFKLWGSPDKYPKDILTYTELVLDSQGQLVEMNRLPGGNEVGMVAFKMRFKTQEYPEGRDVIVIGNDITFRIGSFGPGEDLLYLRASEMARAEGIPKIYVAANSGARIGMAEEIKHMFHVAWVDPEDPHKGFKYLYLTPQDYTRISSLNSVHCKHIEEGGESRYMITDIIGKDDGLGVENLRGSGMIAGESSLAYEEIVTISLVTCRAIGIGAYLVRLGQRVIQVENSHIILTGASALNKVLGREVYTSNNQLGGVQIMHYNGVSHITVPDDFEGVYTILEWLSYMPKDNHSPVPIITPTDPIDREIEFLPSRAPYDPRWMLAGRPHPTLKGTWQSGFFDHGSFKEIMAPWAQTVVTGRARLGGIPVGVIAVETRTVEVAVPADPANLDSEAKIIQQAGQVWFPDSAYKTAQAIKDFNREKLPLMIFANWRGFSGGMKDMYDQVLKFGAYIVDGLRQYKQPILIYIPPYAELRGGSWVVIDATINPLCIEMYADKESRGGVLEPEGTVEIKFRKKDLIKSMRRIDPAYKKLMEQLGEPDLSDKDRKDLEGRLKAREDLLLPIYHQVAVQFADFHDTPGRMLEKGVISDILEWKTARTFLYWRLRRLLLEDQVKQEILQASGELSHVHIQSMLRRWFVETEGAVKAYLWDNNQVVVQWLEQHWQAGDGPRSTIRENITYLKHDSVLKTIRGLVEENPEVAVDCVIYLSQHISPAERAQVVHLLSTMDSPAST
Experimental: as §1
[3] Preparation of rhACC2. Human ACC2 inhibition was measured using purified recombinant human ACC2 (hrACC2). Briefly, a full length Cytomax clone of ACC2 was purchased from Cambridge Bioscience Limited and was sequenced and subcloned into PCDNA5 FRT TO-TOPO (Invitrogen, Carlsbad, Calif.). The ACC2 was expressed in CHO cells by tetracycline induction and harvested in 5 liters of DMEM/F12 with glutamine, biotin, hygromycin and blasticidin with 1 μg/mL tetracycline (Invitrogen, Carlsbad, Calif.). The conditioned medium containing ACC2 was then applied to a Softlink Soft Release Avidin column (Promega, Madison, Wis.) and eluted with 5 mM biotin. […] The purified ACC2 was dialyzed in 50 mM Tris, 200 mM NaCl, 4 mM DTT, 2 mM EDTA, and 5% glycerol. […] For measurement of ACC2 activity and assessment of ACC2 inhibition, test compounds were dissolved in DMSO and added to the rhACC2 enzyme as a 5× stock with a final DMSO concentration of 1%.
[4] Measurement of human ACC2 inhibition. hACC2 was assayed in a Costar #3676 (Costar, Cambridge, Mass.) 384-well plate using the Transcreener ADP detection FP assay kit (Bellbrook Labs, Madison, Wis.) using the manufacturer's recommended conditions for a 50 uM ATP reaction. The final conditions for the assay were 50 mM HEPES, pH 7.2, 5 mM MgCl2, 5 mM tripotassium citrate, 2 mM DTT, 0.1 mg/mL BSA, 30 μM acetyl-CoA, 50 μM ATP, and 8 mM KHCO3 Typically, a 10 μl reaction was run for 50 min at 25° C., and 10 μl of Transcreener stop and detect buffer was added and the combination incubated at room temp for an additional 1 hour. The data was acquired on an Envision Fluorescence reader (PerkinElmer) using a 620 excitation Cy5 FP general dual mirror, 620 excitation Cy5 FP filter, 688 emission (S) and a 688 (P) emission filter.

| IC50 [1] | IC50 [2] | Structure (SMILES) |
| --- | --- | --- |
| 0.221 µM | 0.068 µM | COc1cccc2cc(C(=O)N3CCC4(CC3)Cc3cn(C(C)(C)C)nc3C(=O)N4)cnc12 [Example 68] |
| 0.123 µM | 0.014 µM | CC(C)(C)n1cc2c(n1)C(=O)NC1(CCN(C(=O)c3ccc4cnc(N)cc4c3)CC1)C2 [Example 59] |
| 0.0058 µM | 0.0024 µM | COc1cccc2ccc(C(=O)N3CCC4(CC3)Cc3cn(C(C)(C)C)nc3C(=O)N4)cc12 [Example 70] |
| 0.163 µM | 0.019 µM | CC(C)(C)n1cc2c(n1)C(=O)NC1(CCN(C(=O)c3ccc4c(C(F)(F)F)n[nH]c4c3)CC1)C2 [Example 83] |
| 0.094 µM | 0.013 µM | CC(C)(C)n1cc2c(n1)C(=O)NC1(CCN(C(=O)c3ccc4[nH]nc(N)c4c3)CC1)C2 [Example 61] |
| 0.073 µM | 0.0089 µM | CN(C)c1nccc2ccc(C(=O)N3CCC4(CC3)Cc3cn(C(C)(C)C)nc3C(=O)N4)cc12 [Example 103, 2′-tert-butyl-1-(1-(dimethylamino)isoquinoline-7-carbonyl)-4′,6′-dihydrospiro[piperidine-4,5′-pyrazolo[3,4-c]pyridin]-7′(2′H)-one] |
| 0.269 µM | 0.305 µM | CC(C)(C)n1ncc2c1C(=O)NC1(CCN(C(=O)c3ccc4n[nH]cc4c3)CC1)C2 [Example 6] |
| 1.25 µM | 0.843 µM | CC(C)n1ncc2c1C(=O)NC1(CCN(C(=O)c3ccc4cnccc4c3)CC1)C2 [Example 22] |
| 0.033 µM | 0.0092 µM | CNc1ccc2ccc(C(=O)N3CCC4(CC3)Cc3cnn(C(C)C)c3C(=O)N4)cc2n1 [Example 29] |
| 0.16 µM | 0.026 µM | CC(C)(C)n1cc2c(n1)C(=O)NC1(CCN(C(=O)c3ccc4c(N)nccc4c3)CC1)C2 [Example 101, 1-(1-aminoisoquinoline-6-carbonyl)-2′-tert-butyl-4′,6′-dihydrospiro[piperidine-4,5′-pyrazolo[3,4-c]pyridin]-7′(2′H)-one] |
| 0.155 µM | 0.034 µM | CC(C)(C)n1cc2c(n1)C(=O)NC1(CCN(C(=O)c3cc(C(F)(F)F)c4[nH]ncc4c3)CC1)C2 [Example 78] |
| 0.017 µM | 0.0027 µM | CC(C)(C)n1cc2c(n1)C(=O)NC1(CCN(C(=O)c3ccc4ccnc(NC5CCC5)c4c3)CC1)C2 [Example 118] |
| 0.648 µM | 0.56 µM | CC(C)n1ncc2c1C(=O)NC1(CCN(C(=O)c3cnc4[nH]ccc4c3)CC1)C2 [Example 9] |
| 0.028 µM | 0.0059 µM | CC(C)(C)n1cc2c(n1)C(=O)NC1(CCN(C(=O)c3ccc4ccc(N)nc4c3)CC1)C2 [Example 72] |
| 0.656 µM | 0.177 µM | Cc1nc2cc(C(=O)N3CCC4(CC3)Cc3cn(C(C)C)nc3C(=O)N4)ccc2[nH]1 [Example 40] |
| 3.92 µM | 2.28 µM | CC(C)n1ncc2c1C(=O)NC1(CCN(C(=O)c3ccc4nn(C)cc4c3)CC1)C2 [Example 3, 1′-isopropyl-1-(2-methyl-2H-indazole-5-carbonyl)-4′,6′-dihydrospiro[piperidine-4,5′-pyrazolo[3,4-c]pyridin]-7′(1′H)-one] |
| 0.0089 µM | 0.0018 µM | CCNc1ccc2ccc(C(=O)N3CCC4(CC3)Cc3cn(C(C)(C)C)nc3C(=O)N4)cc2n1 [Example 112] |
| 0.118 µM | 0.09 µM | Cc1n[nH]c2ccc(C(=O)N3CCC4(CC3)Cc3cnn(C(C)C)c3C(=O)N4)cc12 [Example 16] |

Second part, the compound before the results:

| Structure (SMILES) | IC50 [1] | IC50 [2] |
| --- | --- | --- |
| CNc1n[nH]c2ccc(C(=O)N3CCC4(CC3)Cc3cn(C(C)(C)C)nc3C(=O)N4)cc12 [Example 93] | 0.065 µM | 0.0086 µM |
| COc1cccc2cc(C(=O)N3CCC4(CC3)Cc3cn(C(C)(C)C)nc3C(=O)N4)ccc12 [Example 50] | 0.03 µM | 0.0075 µM |
| CCNc1nccc2ccc(C(=O)N3CCC4(CC3)Cc3cn(C(C)(C)C)nc3C(=O)N4)cc12 [Example 121] | 0.017 µM | 0.0027 µM |
| Cc1cc(C(=O)N2CCC3(CC2)Cc2cn(C(C)(C)C)nc2C(=O)N3)cc2cn[nH]c12 [Example 44] | 0.026 µM | 0.01 µM |
| Cc1nc2cc(C(=O)N3CCC4(CC3)Cc3cnn(C(C)C)c3C(=O)N4)ccc2[nH]1 [Example 1, 1′-isopropyl-1-(2-methyl-1H-benzo[d]imidazole-5-carbonyl)-4′,6′-dihydrospiro[piperidine-4,5′-pyrazolo[3,4-c]pyridin]-7′(1′H)-one] | 0.417 µM | 0.312 µM |
| CC(C)n1ncc2c1C(=O)NC1(CCN(C(=O)c3ccc4c(cnn4C)c3)CC1)C2 [Example 13] | 2.04 µM | 1.55 µM |
| CC(C)(C)n1cc2c(n1)C(=O)NC1(CCN(C(=O)c3ccc4ccc(NC5COC5)nc4c3)CC1)C2 [Example 113] | 0.507 µM | 0.044 µM |
| COc1n[nH]c2cc(C(=O)N3CCC4(CC3)Cc3cn(C(C)(C)C)nc3C(=O)N4)ccc12 [Example 79] | 0.216 µM | 0.018 µM |
| Cn1[nH]c2cc(C(=O)N3CCC4(CC3)Cc3cn(C(C)(C)C)nc3C(=O)N4)ccc2c1=O [Example 84] | 0.194 µM | 0.033 µM |
| CC(C)n1ncc2c1C(=O)NC1(CCN(C(=O)c3ccc4ccncc4c3)CC1)C2 [Example 23] | 0.621 µM | 0.52 µM |
| CNc1nccc2ccc(C(=O)N3CCC4(CC3)Cc3cnn(C(C)C)c3C(=O)N4)cc12 [Example 36] | 0.067 µM | 0.028 µM |
| CCc1cc(C(=O)N2CCC3(CC2)Cc2cnn(C(C)C)c2C(=O)N3)cc2cn[nH]c12 [Example 14] | 0.131 µM | 0.091 µM |
| Cc1cc(C(=O)N2CCC3(CC2)Cc2cn(C(C)(C)C)nc2C(=O)N3)cc2c(Cl)n[nH]c12 [Example 62] | 0.0084 µM | 0.0021 µM |
| CC(C)n1ncc2c1C(=O)NC1(CCN(C(=O)c3ccc4ncccc4c3)CC1)C2 [Example 21] | 0.619 µM | 0.341 µM |
| CC(C)n1ncc2c1C(=O)NC1(CCN(C(=O)c3cnc4ccccc4c3)CC1)C2 [Example 20] | 0.336 µM | 0.299 µM |
| COc1ccc(C)c2[nH]c(C(=O)N3CCC4(CC3)Cc3cn(C(C)(C)C)nc3C(=O)N4)cc12 [Example 56] | 0.0074 µM | 0.0019 µM |
| CC(C)n1ncc2c1C(=O)NC1(CCN(C(=O)c3ccc4[nH]nc(C(N)=O)c4c3)CC1)C2 [Example 27] | 0.296 µM | 0.132 µM |
| Cn1[nH]c2ccc(C(=O)N3CCC4(CC3)Cc3cn(C(C)(C)C)nc3C(=O)N4)cc2c1=O [Example 67] | 1.34 µM | 0.311 µM |
| CC(C)n1ncc2c1C(=O)NC1(CCN(C(=O)c3cnc4c(Cl)c[nH]c4c3)CC1)C2 [Example 32] | 0.154 µM | 0.056 µM |
| CNc1cc2ccc(C(=O)N3CCC4(CC3)Cc3cn(C(C)(C)C)nc3C(=O)N4)cc2cn1 [Example 95] | 0.105 µM | 0.0092 µM |
| COc1cc(C(=O)N2CCC3(CC2)Cc2cnn(C(C)C)c2C(=O)N3)cc2[nH]ncc12 [Example 12] | 0.035 µM | 0.037 µM |
